Measured values published in US12685777B2, “Compositions, systems, and methods for modulating a target gene” (The Board of Trustees of the Leland Stanford Junior …, priority 2022, dated 2026).

Assays:
[1] = system: primary human tonsillar lymphocytes; experiment: Cell viability of primary human tonsillar lymphocytes; type: cell-based; conditions: 72 hours, read-out: EC50 of killing of lymphocytes
Procedure: Lymphoma and leukemia cells were cultured in RPMI-1640 (ATCC 30-2001)+10% FBS with antibiotics (100× PenStrep GIBCO #15140122). Primary human fibroblasts were obtained from ATCC (#CRL2522), cultured in DMEM+10% FBS with antibiotics and used at passages 3-5. Primary human tonsillar lymphocytes were a kind gift from M. M. Davis. Cells were routinely checked for mycoplasma and immediately checked upon suspicion. No cultures tested positive.
(§1) 30,000 cells were plated in 100 μL media per well of a 96 well plate and treated with drug for indicated times and doses. A resazurin-based indicator of cell health (PrestoBlue, ThermoFisher #P50200) was added for 1.5 hours after which the fluorescence ratio at 560/590 nm was recorded. The background fluorescence was subtracted and the signal was normalized to DMSO-treated cells. EC50 measurements on cell lines were done with 4 biological repeats by separate cell passages maintained by 3 independent investigators. Fit of dose-response curves to data and statistical analysis was performed using drc package in R using the four-parameter log-logistic function.
After treatment, mouse tissue was harvested for RNA-seq and histology. […] Serum concentrations after 8 hours were -100 to 400-fold higher than therapeutic doses (FIG. 37, Panel C).

OCILY19 = experiment: Cell viability of OCILY19 DLBCL cells; type: cell-based
Procedure: as §1
The level of expression of BCOR, NCOR and SMRT, which engage PRC and HDACs to produce epigenetic suppression of target genes varied among the cell lines and could also contribute to the variation in sensitivity. […] Among the cell lines tested there was no evidence that killing required TP53, nor was there evidence of repression of killing by endogenous BCL2 levels (FIG. 28, Panel B).

KARPAS422 [2] = experiment: Cell cycle and TUNEL analysis in KARPAS422 cells; type: cell-based, human
Procedure: Cells were incubated for 15 minutes at RT, then immediately measured on a BD Accuri. Gates were drawn based off single-stain and no-stain controls. For cell cycle and TUNEL analysis, cells plated at 1 M/mL were treated with drug for indicated timepoints and doses and pulsed with 10 μM ethynyl-EdU (Thermo #C10424) for 2 hours prior to harvesting on ice. 1 M cells were counted and washed in 2.5% FBS/PBS. Cells were resuspended at 10 M/mL and fixed in 4% PFA, washed, and permeabilized in 0.5% Triton-X100/PBS. […] Gates were drawn based off single-stain and no-stain controls and kept constant across conditions. Cancers can evade cell killing by many chemotherapeutics that function only during a specific stage of the cell cycle. […] The assay allows the analysis of the percentage of apoptotic cells in each cell population: G0/G1, G2/M, and S phase cells (FIG. 34). […] The finding implies that unlike many conventional chemotherapeutics, BRD4-BCL6-TCIPs could kill cancer cells without periods of potential insensitivity.

KARPAS422 [3] = experiment: Annexin V / 7-AAD apoptosis assay in KARPAS422 cells; type: cell-based, human
Procedure: For annexin V assays, 500,000 cells plated at 1 M/mL treated with drug for indicated timepoints and doses were harvested on ice and washed twice in 2.5% FBS/PBS. 2.5 μL of 7-AAD and 2.5 μL of FITC-Annexin V (Biolegend #640922) were added. Cells were incubated for 15 minutes at RT, then immediately measured on a BD Accuri. Gates were drawn based off single-stain and no-stain controls. For cell cycle and TUNEL analysis, cells plated at 1 M/mL were treated with drug for indicated timepoints and doses and pulsed with 10 μM ethynyl-EdU (Thermo #C10424) for 2 hours prior to harvesting on ice. 1 M cells were counted and washed in 2.5% FBS/PBS. Cells were resuspended at 10 M/mL and fixed in 4% PFA, washed, and permeabilized in 0.5% Triton-X100/PBS. […] After washes, the sample was incubated with 2 μL 7-AAD and 5 μL RNAseA for 30 minutes at RT in the dark, washed, and measured on a BD Accuri. Gates were drawn based off single-stain and no-stain controls and kept constant across conditions.

BCL6 and BRD4 = target: T1, BCL6 and BRD4 (Homo sapiens, UniProt O60885+P41182); experiment: BCL6-BRD4 nanoBRET assay in HEK cells; type: cell-based; conditions: C- and N-terminally labeled BCL6 with N-terminally labeled BRD4, HEK cells
T1 construct: N-terminal fusion of HaloTag to full-length BCL6; N-terminal fusion of nanoLuc (nano-luciferase) to full-length BRD4 (Promega #N169A); host or cells: HEK293T
Procedure: The conditions and methods for nanoBRET, a well-recognized assay of in vivo target engagement, are described in PMID 26006698.
A 12-point dose-response curve with 3 technical replicates for each TCIP was carried out and corrected BRET ratios were calculated according to manufacturer assay protocol (Promega #TM439). Data was fit using the R package drc using the four-parameter log-logistic function.

DMS-79 = experiment: Dose response on viability of small cell lung cancer line, resazurin assay; type: cell-based; conditions: Homo sapiens; DMS-79, 72 h treatment
Procedure: (§2) IC50 of JWZ-7-7, BI-3812, JQ1, and combinations were calculated based on a dose response curve on three small cell lung cancer lines (FIG. 5). The dose response curve on viability was performed in technical replicates and biological triplicate after treating cells for 72 hours across a broad range of concentrations via serial dilutions. Viable cells were measured after treatment via a resazurin assay. The signal for viable assays was normalized to the DMSO treated negative control. A four-parameter non-linear fit was performed to fit a curve to calculate the IC50 for each of the cell lines. The table below describes the calculated IC50 across JWZ-7-7, JQ1, BI-3812 and combination of JQ1 and BI-3812 after 72 h treatment in technical replicates and biological triplicates.

NCI-H2196 = experiment: as above; type: cell-based; conditions: Homo sapiens; NCI-H2196, 72 h treatment
Procedure: as §2

NCI-H1105 = experiment: as above; type: cell-based; conditions: NCI-H1105, 72 h treatment; read-out: IC50
Procedure: as §2

Structure (SMILES)	EC50 [1] [nM]	Response of a DLBCL line with no detectable BCL6 (OCILY19)	Cell cycle block (KARPAS422 [2]; KARPAS422)	Cell cycle phases in which cell death occurs (TUNEL) (KARPAS422 [2]; KARPAS422, 100 nM)	Time to detectable apoptosis (KARPAS422 [3]) [h]	nanoBRET signal of proximity (BCL6 and BRD4)	IC50 (DMS-79) [nM]	IC50 (NCI-H2196) [nM]	IC50 (NCI-H1105) [nM]
CNC(=O)COc1cc2cc(Nc3nc(N4CCC(C(=O)NCCCCCCCNC(=O)C[C@@H]5N=C(c6ccc(Cl)cc6)c6c(sc(C)c6C)-n6c(C)nnc65)CC4)ncc3Cl)cc(OC)c2n(C)c1=O [TCIP1]	210	little or no response	both a G1/S and G2/M block	all phases of the cell cycle	4 to 8				
CNC(=O)COc1cc2cc(Nc3nc(N4CCC(C(=O)NCCCCCCCNC(=O)C[C@@H]5N=C(c6ccc(Cl)cc6)c6c(sc(C)c6C)-n6c(C)nnc65)CC4)ncc3Cl)cc(OC)c2n(C)c1=O [JWZ-7-7, (S)-1-(5-chloro-4-((8-methoxy-1-methyl-3-(2-(methylamino)-2-oxoethoxy)-2-oxo-1,2-dihydroquinolin-6-yl)amino)pyrimidin-2-yl)-N-(7-(2-(4-(4-chlorophenyl)-2,3,9-trimethyl-6H-thieno[3,2-f][1,2,4]triazolo[4,3-a][1,4]diazepin-6-yl)acetamido)heptyl)piperidine-4-carboxamide]						generated a specific signal of proximity	66	81	75
